Results taken from paper PMC7724630, “Improving the Stability of EGFR Inhibitor Cobalt(III) Prodrugs” (Inorganic Chemistry, 2020).
Like-named read-outs stand apart in the source and are kept apart here.

Experiments:
[1] = Cyclic voltammetry, cathodic peak potential Co(III)/Co(II); format: physicochemical; settings: 10 mM phosphate buffer pH 7.40, 0.1 M KCl, scan rate 30 mV/s, 1.5 mM complex
Description: As the reduction process is crucial for the activation of cobalt(III)-based prodrug systems, the redox properties of the complexes were investigated to elucidate the effects of ligand methylation at different positions. Cyclic voltammetry measurements were performed in aqueous solution at pH 7.40 (10 mM phosphate buffer with 0.1 M KCl). […] Also, at a much higher scan speed of 1000 mV/s, the redox processes were still completely irreversible (Figure S5).
The compounds were dissolved in 10 mM phosphate buffer (pH 7.40), with 0.1 M KCl as the supporting electrolyte, to obtain a final concentration of 1.5 mM. Electrochemical experiments were conducted on an EG&G PARC 273A potentiostat/galvanostat with scan rates of 30 and 1000 mV/s at room temperature. Argon was bubbled through the solution before every measurement to remove oxygen. A three-electrode configuration cell was used with a glassy carbon electrode as the working electrode, which was polished before every measurement. The reference electrode was Ag/AgCl/KCl (3.5 M), and the auxiliary electrode was a platinum wire. Electrodes were conditioned regularly in 1 M H2SO4 for 5–10 cycles between voltage limits of −1.0 and 1.0 V at a scan rate of 100 mV/s. The system was calibrated with 1.5 mM K3[Fe(CN)6] for every experiment. Redox potentials measured relative to the Ag/AgCl/KCl (3.5 M) reference electrode were converted for potentials against NHE by the addition of 0.205 V. Measurements were repeated at least three times, and the mean values were calculated.

A431 cancer cells = test: MTT-based cytotoxicity assay under different O2 levels; format: cell-based, Human; settings: A431, 72 h
[2] = Interaction with low-molecular weight reducing agents (GSH, AA, NADH), UV-vis and fluorometric detection; format: physicochemical; settings: 10 equiv of GSH, pH 7.40, 25 °C, 24 h
Description: The interaction of AA, GSH, and NADH at pH 7.40 (phosphate buffer) was investigated exemplarily for Co(acac)2L^+ and Co(Meacac)2L^+. The reaction was followed by ultraviolet–visible (UV–vis) and fluorometric detection at 25 °C with a 10-fold excess of reducing agent. Spectrofluorometry was proven to be an effective technique for monitoring this redox reaction, because the free EGFR inhibitor ligand L is highly fluorescent, while its cobalt(III) complex has negligible emission (vide supra).[17] Accordingly, an increase in the emission intensity is expected upon reduction and concomitant release of the free ligand. […] The same tendency was observed by UV–vis detection (data not shown). […] AA and NADH were also not able to reduce the two complexes even after 24 h. […]
Proton dissociation processes of PhEn were followed by UV–vis spectrophotometry and spectrofluorometry; samples were prepared in water containing 100 and 10 μM ligand, respectively, and 0.1 M KCl at 25 ± 0.2 °C. The proton dissociation constants and the UV–vis or fluorescence emission spectra of the individual species in the various protonation states were calculated by deconvolution of the spectra recorded in the pH range of 2.0–11.5 with PSEQUAD.[40] […] Batch samples contained 30 μM cobalt(III) complex and 10 equiv of AA, GSH, or NADH in PBS buffer (pH 7.40) and were used only once to record their UV–vis and fluorescence spectra. […]

[3] = test system: EGFR phosphorylation at position Y1068 and ERK 1/2 in A431 cells; test: Western blot of EGFR signaling (pEGFR Y1068, pERK 1/2) after EGF stimulation; format: cell-based, Human; settings: A431 serum-starved, 2 h drug, EGF 50 ng/mL 10 min, normoxic
EGFR (ErbB1) = EGFR (ErbB1) (Homo sapiens, UniProt P00533); test: Cell-free kinase inhibition assay (ZLYTE, Select Screen); format: biochemical; settings: 10 μM ATP (10-fold excess of ATP), 1% DMSO
EGFR (ErbB1), sequence (P00533 25-1210): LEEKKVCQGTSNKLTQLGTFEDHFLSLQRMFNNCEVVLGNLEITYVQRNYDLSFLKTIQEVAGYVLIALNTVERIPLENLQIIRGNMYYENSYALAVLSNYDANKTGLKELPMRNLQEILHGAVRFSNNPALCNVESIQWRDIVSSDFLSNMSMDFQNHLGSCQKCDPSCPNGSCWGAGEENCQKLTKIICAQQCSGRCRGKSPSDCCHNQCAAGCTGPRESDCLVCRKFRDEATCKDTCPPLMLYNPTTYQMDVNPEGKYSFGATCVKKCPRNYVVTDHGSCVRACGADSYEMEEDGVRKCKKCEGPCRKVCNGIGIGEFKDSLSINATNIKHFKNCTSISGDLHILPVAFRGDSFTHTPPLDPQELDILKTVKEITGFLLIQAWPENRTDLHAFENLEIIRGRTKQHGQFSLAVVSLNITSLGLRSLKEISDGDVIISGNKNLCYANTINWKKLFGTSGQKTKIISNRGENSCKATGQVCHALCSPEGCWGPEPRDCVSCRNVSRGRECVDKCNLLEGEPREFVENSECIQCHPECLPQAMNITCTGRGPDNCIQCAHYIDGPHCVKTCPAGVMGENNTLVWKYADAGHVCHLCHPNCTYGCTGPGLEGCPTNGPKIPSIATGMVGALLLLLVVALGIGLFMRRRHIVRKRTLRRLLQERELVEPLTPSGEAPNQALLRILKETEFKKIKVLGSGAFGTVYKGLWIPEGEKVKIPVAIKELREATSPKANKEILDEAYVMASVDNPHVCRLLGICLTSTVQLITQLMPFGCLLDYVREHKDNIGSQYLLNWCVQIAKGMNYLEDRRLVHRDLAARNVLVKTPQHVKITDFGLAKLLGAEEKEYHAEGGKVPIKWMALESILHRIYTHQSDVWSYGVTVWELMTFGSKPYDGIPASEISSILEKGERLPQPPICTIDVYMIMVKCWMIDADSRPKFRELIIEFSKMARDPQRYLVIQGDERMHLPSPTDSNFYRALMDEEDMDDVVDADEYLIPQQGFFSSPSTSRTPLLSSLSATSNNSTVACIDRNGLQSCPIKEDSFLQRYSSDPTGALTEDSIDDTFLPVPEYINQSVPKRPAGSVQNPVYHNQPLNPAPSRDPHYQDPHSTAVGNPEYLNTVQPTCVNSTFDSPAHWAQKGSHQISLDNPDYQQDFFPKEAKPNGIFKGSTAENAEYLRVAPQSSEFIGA

[4] = design: method as in PMID 29567575; settings: pH 7.40; cited from earlier work
[5] = previous work; cited from earlier work
[6] = test system: EGFR phosphorylation at position Y1068 and ERK 1/2 in A431 cells; design: method as in PMID 25079700; settings: A431, normoxic; cited from earlier work
Serum stability, HPLC-MS = format: in vitro ADME; settings: FCS, 37 °C, pH 7.4, 50 μM, 26 h
Description: The data presented in the previous sections indicate that even in the presence of low-molecular weight reducing agents the cobalt(III) complexes are completely stable. Therefore, we wanted to investigate if this is still true in a more elaborate biological environment like blood serum. To this end, the four EGFR inhibitor complexes were dissolved in 50 mM phosphate puffer and mixed in a 1:10 ratio with fetal calf serum (FCS; buffered with 150 mM phosphate buffer to keep a stable pH of 7.4) to a final concentration of 50 μM. The samples were incubated at 37 °C and after 0, 2, 6, 24, and 26 h extracted with acetonitrile and measured by HPLC-MS. […] The intact complex could be observed at 14.2 min (blue peak, m/z 614.0). The red signal at the same retention time (Figure 7A; 14.2 min, m/z 358.1) is a mass spectrometry artifact and belongs to the free ligand generated during ionization of the complex.
For serum stability measurements, 135 μL of FCS, buffered with 150 mM phosphate (Na2HPO4/NaH2PO4) to maintain a pH value of 7.4, was mixed with 15 μL of a 500 μM stock solution of the respective complex in 50 mM phosphate buffer to reach a final concentration of 50 μM. The samples were incubated at 37 °C. At different time points, to 20 μL of serum was added 40 μL of ACN. […] The supernatant was taken up with a syringe and directly measured via HPLC-MS.

[7] = 0.1% O2, read-out: IC50 hypoxia with 0.1% O2
[8] = 1% O2, read-out: IC50 hypoxia with 1% O2
[9] = 5% O2, read-out: IC50 hypoxia with 5% O2
[10] = 21% O2, read-out: IC50 normoxia

| SMILES | cathodic peak potential (Ec) vs NHE [1] [mV] | IC50 (A431 cancer cells; [7]) [µM] | IC50 (A431 cancer cells; [8]) [µM] | IC50 (A431 cancer cells; [9]) [µM] | IC50 (A431 cancer cells; [10]) [µM] | reduction / release of free ligand L by GSH [2] | EGFR-inhibitory potential (pEGFR, pERK 1/2) [3] | IC50 (A431 cancer cells; Homo sapiens, A-431, 0.1% O2, read-out: IC50 hypoxia with 0.1% O2) [µM] | IC50 (A431 cancer cells; Homo sapiens, A-431, 1% O2, read-out: IC50 hypoxia with 1% O2) [µM] | IC50 (A431 cancer cells; Homo sapiens, A-431, 5% O2, read-out: IC50 hypoxia with 5% O2) [µM] | IC50 (A431 cancer cells; Homo sapiens, A-431, 21% O2, read-out: IC50 normoxia) [µM] | IC50 (EGFR (ErbB1)) [µM] | log D7.40 [4] | pKa1 [5] | pKa2 [5] | EGFR-inhibitory potential (pEGFR, pERK 1/2) [6] | cobalt complex less active than the respective free ligand (A431 cancer cells; normoxia) [fold] | intact compound after serum incubation (Serum stability, HPLC-MS) [%] |
| --- | --- | --- | --- | --- | --- | --- | --- | --- | --- | --- | --- | --- | --- | --- | --- | --- | --- | --- |
| CC(=O)[C-](C)C(C)=O.CC(=O)[C-](C)C(C)=O.NCCNc1ccc2ncnc(Nc3cccc(Br)c3)c2c1.[Cl-].[Co+3] [Co(Meacac)2L^+, Bis(3-methyl-2,4-pentanedionato) N^6-(2-Aminoethyl)-N^4-(3-bromophenyl)quinazoline-4,6-diamine Cobalt(III) Chloride] | 4 | 23.5 ± 5.1 | 25.3 ± 3.9 | 45.5 ± 2.7 | 51.9 ± 9.4 | practically no reduction process | distinctly weakened EGFR-inhibitory potential |  |  |  |  |  |  |  |  |  |  |  |
| NCCNc1ccc2ncnc(Nc3cccc(Br)c3)c2c1 [L, N^6-(2-Aminoethyl)-N^4-(3-bromophenyl)quinazoline-4,6-diamine] |  |  |  |  |  |  |  | 13.7 ± 2.9 | 12.7 ± 2 | 12.8 ± 0.9 | 12 ± 1.3 | 0.00029 | 1.86 ± 0.03[29] | < 1.0 | 9.21 | potent EGFR inhibition |  |  |
| CC(=O)[CH-]C(C)=O.CC(=O)[CH-]C(C)=O.CNCCNc1ccc2ncnc(Nc3cccc(Br)c3)c2c1.[Cl-].[Co+3] [Co(acac)2MeL^+, Bis(2,4-pentanedionato) N^4-(3-Bromophenyl)-N^6-[2-(methylamino)ethyl]quinazoline-4,6-diamine Cobalt(III) Chloride] | 120 | 11.9 ± 3.5 | 12.5 ± 3.1 | 13.5 ± 3.2 | 15.1 ± 1.6 |  |  |  |  |  |  |  |  |  |  |  | ~2 | 50 |
